Reference: publication PMC7662523, “Evaluation of Polyhedral Oligomeric Silsesquioxane Porphyrin Derivatives on Photodynamic Therapy” (Molecules, 2020)

What was measured:
[1] = Singlet oxygen quantum yield, indirect method with DMA as 1O2 probe in DMF; format: physicochemical; details: for ΦΔ (1O2 quantum yield): DMA probe, irradiated at 515 nm, relative to TPP (ΦΔ = 0.62), n = 3
Procedure: The ^1O2 quantum yield (ΦΔ) of the POSSP compounds in dimethyl formamide (DMF) was indirectly determined using 9,10-dimethylanthracene (DMA) as ^1O2 probe. DMA reacts with ^1O2, undergoing a 1,4-cycloaddition that is detected as a decrease in the intensity of the DMA absorption band at 379 nm.
The ^1O2 quantum yields (ΦΔ) were determined through an indirect method using dimethylanthracence (DMA) as the singlet oxygen probe. Several solutions containing DMF were air saturated and prepared with DMA (50 μM) and the POSSPs or parent porphyrins (TPP, ATPP, TAPP and compound 6) (5 μM). These solutions were covered with aluminum foil to avoid any premature quenching. Quartz cuvettes (1 cm × 1 cm) were filled with 1 mL of the solution, placed in a spectrofluorophotometer (xenon lamp, Shimadzu RF-5301 PC) and irradiated at 515 nm for 600 s. The absorbance decay of DMA was monitored at 380 nm, which was corrected from light scattering by subtracting the spectra of POSSPs. The ΦΔ was calculated using Equation (2). Φ∆,S = Φ∆,R (mSample/mRerefence) (1−10^−absReference/1−10^−absSample)(2) where Φ∆,S is the singlet oxygen quantum yield of the sample and m is the slope of the plotted data relative to the area of the emission peak against the absorption of the reference.

MDA-MB-231 cells [2] = assay: In vitro phototoxicity, MTS assay after red light (630 nm) irradiation; format: cell-based, human; details: for phototoxicity (in words): highest concentration evaluated (0.5 µM), 630 nm light; for reduction in cell proliferation: 0.5 µM, 48 h incubation, 630 nm 24.5 mW/cm2 20 min
Procedure: (§1) The phototoxicities of ATPP, TAPP, compound 6 and POSSPs 1–5 were tested by using the MTS assay. For this study, MDA-MB-231 cells were seeded in a 96-well plate at a density of 5 × 10^3 cells per well in 100 µL of complete media and incubated at 37 °C in 5% CO2 atmosphere for 24 h. After removing the cell culture medium, POSSPs 1–5 at different concentrations (0.01–0.5 µM) were prepared in cell media from a stock solution in DMSO with a final volume of the organic solvent not larger than 1% vol. After 48 h of incubation in the presence of POSSPs, the culture media was removed, and the cells were washed twice with phosphate buffer solution. MDA-MB-231 cells were illuminated with the red light (630 nm) at a fluence rate of 24.5 mW/cm^2 for 20 min. Control experiments were maintained in the same conditions, but in the dark for the same interval of time. After irradiation, the media was replaced by fresh media and the cells were allowed to grow for an additional 24 h. The cyto- and phototoxicities of compound 6 and POSSPs 4 and 5 were also evaluated following the above described protocol, but using concentrations ranging 0.01–100 µM.
To quantify the phototoxic or dark toxicity effects of the experiments above described, the treated MDA-MB-231 cells were subjected to cell viability assay using the CellTiter 96® Aqueous solution assay. To perform the assay, the cell media was removed, and the cells were washed once with phosphate buffer solution. Fresh media (100 µL) together with 20 µL of CellTiter 96® was added into each well and incubated for 2–3 h at 37 °C in 5% CO2 atmosphere. Cell viability (%) was calculated as follows: viability = (Asample/Acontrol) × 100%, where Asample and Acontrol denote absorbance values of the sample and control wells measured at 490 nm, respectively. The results are reported as the average ± SD of three experiments. The IC50 values were determined using GraphPad Prism (v8.1.2 for macOS, La Jolla California, CA, USA) fitting the viability data to a sigmoidal curve mathematical model.

MDA-MB-231 cells [3] = assay: Cell internalization by flow cytometry (percentage of positive cells); format: cell-based, human; details: 0.5 µM, 24 h
Procedure: Six-well plates were prepared with 1 × 10^5 MDA-MB-231 cells per well in complete RPMI media (2 mL) and incubated at 37 °C in 5% CO2 for 48 h. The media was removed from each well and media solutions of control porphyrin (ATPP) and POSSPs 1–5 (2 mL, 0.5 µM) were added to the wells. The cells were incubated at 37 °C in 5% CO2 atmosphere for 24 h. The cell media was removed from the wells, and the cells were washed with phosphate buffer solution two times. The cells were incubated for 3–5 min in the presence of trypsin (500 µL). Cells were removed and transferred to a centrifuge tube. Media (500 µL) was added to each well to remove any remaining cells and mixed with the previous solution. The cell pellet was obtained after centrifugation (2.5k RPM, 10 min). The supernatant was discarded, and phosphate buffer solution (500 µL) was added to each tube. The cell pellet was mixed and transferred to flow cytometry tubes. The cell internalization of POSSP compounds was measured as the percentage of positive cells using a flow cytometer (BD LSRFortessa).

[4] = Partition coefficient (log POW) from n-butanol/water measurement; format: physicochemical; details: n-butanol/water measured at 25 °C, converted with calibration equation
Procedure: The log POW values of the POSSPs and controls were first measured in an n-butanol/water mixture, and then correlated with corresponding values in n-octanol/water using a calibration curve reported in the literature. Distilled water and butanol were thoroughly mixed for 24 h at 25 °C to achieve solvent saturation in both phases. Then, the porphyrin derivatives were added to the mixture and the phases separated through a separatory funnel. The UV–Vis absorbance of the compounds in water and n-butanol was recorded at 420 nm. logPBW = log[(Ab/Aw)(Vw/Vb)](3) where Ab is the absorbance of n-butanol phase; AW is the absorbance of water phase; VW is the volume of water; and Vb is the volume of n-butanol. The partition coefficient of porphyrin derivatives in n-butanol/water was obtained using Equation (3). The log POW values were calculated using Equation (4). logPOW = −0.54 + 1.55 log(PBW)(4)

[5] = Fluorescence quantum yield, comparative method relative to TPP; format: physicochemical; details: air-saturated, excitation 520 nm, relative to TPP in benzene, n = 3
Procedure: The fluorescence quantum yields (ΦF) were determined to indirectly characterize the efficiency with which the POSSP compounds undergo intersystem crossing (ISC) from the excited state to the triplet state, an essential step in ROS generation. […] In the case of POSSPs 4 and 5, no differences in the ΦF values were observed.
The fluorescence quantum yields for air-saturated solutions (ΦF) in THF (POSSPs 1–3) or DMSO (POSSPs 4 and 5) were determined using the comparative method. TPP was used as a reference with a fluorescence quantum yield of 0.12 in benzene. The POSSPs concentrations ranged from 0.1 to 10 µM (THF) for POSSPs 1–3 and from 3 to 15 µM (DMSO) for POSSPs 4 and 5. The excitation wavelength was 520 nm and the excitation and emission slit width were 2 nm. The fluorescence quantum yields were measured according to the comparative method described by Equation (1).

MDA-MB-231 cells [6] = assay: In vitro cytotoxicity in the absence of light, MTS assay; format: cell-based, human; details: concentrations 0.01–100 µM, Figure S7
Procedure: as §1, with “MDA-MB-231 cells were illuminated with the red light (630 nm) at a fluence rate of 24.5 mW/cm^2 for 20 min. Control experiments were maintained in the same conditions, but in the dark for the same interval of time. After irradiation, the media was replaced by fresh media and the cells were allowed to grow for an additional 24 h.” left out
To quantify the phototoxic or dark toxicity effects of the experiments above described, the treated MDA-MB-231 cells were subjected to cell viability assay using the CellTiter 96® Aqueous solution assay. […] Cell viability (%) was calculated as follows: viability = (Asample/Acontrol) × 100%, where Asample and Acontrol denote absorbance values of the sample and control wells measured at 490 nm, respectively. […] The IC50 values were determined using GraphPad Prism (v8.1.2 for macOS, La Jolla California, CA, USA) fitting the viability data to a sigmoidal curve mathematical model.

[7] = design: method as in PMID 10911728; details: in benzene; cited from earlier work
[8] = reference value used for calculation; cited from earlier work

With `Nc1ccc(-c2c3nc(c(-c4ccccc4)c4ccc([nH]4)c(-c4ccccc4)c4nc(c(-c5ccccc5)c5ccc2[nH]5)C=C4)C=C3)cc1` [ATPP, 5-(4-aminophenyl)-10,15,20-(triphenyl)porphyrin, reference compound] the “ΦΔ value (in words)” value ([1]; Table S1) was “low ΦΔ value”, the “phototoxicity (in words)” value (MDA-MB-231 cells [2]) was “minimal PDT effect” and the “internalization in cells (in words)” value (MDA-MB-231 cells [3]) was “high internalization”.

With `CC(C)C[Si]12O[Si]3(CCCNC(=O)Nc4ccc(-c5c6nc(c(-c7ccccc7)c7ccc([nH]7)c(-c7ccccc7)c7nc(c(-c8ccccc8)c8ccc5[nH]8)C=C7)C=C6)cc4)O[Si]4(CC(C)C)O[Si](CC(C)C)(O1)O[Si]1(CC(C)C)O[Si](CC(C)C)(O2)O[Si](CC(C)C)(O3)O[Si](CC(C)C)(O4)O1` [POSSP 1] the “ΦΔ (1O2 quantum yield)” value [1] was 0.82 ± 0.01, the “log POW (in words)” value [4] was “positive values” and the “ΦF (fluorescence quantum yield)” value ([5]; in THF) was 0.14 ± 0.01. The “reduction in cell proliferation” value (MDA-MB-231 cells [2]) was 43 ± 4%.

For `O=C(NCCC[Si]12O[Si]3(c4ccccc4)O[Si]4(c5ccccc5)O[Si](c5ccccc5)(O1)O[Si]1(c5ccccc5)O[Si](c5ccccc5)(O2)O[Si](c2ccccc2)(O3)O[Si](c2ccccc2)(O4)O1)Nc1ccc(-c2c3nc(c(-c4ccccc4)c4ccc([nH]4)c(-c4ccccc4)c4nc(c(-c5ccccc5)c5ccc2[nH]5)C=C4)C=C3)cc1` [POSSP 2], the “ΦΔ (1O2 quantum yield)” value [1] was 0.60 ± 0.02, the “log POW (in words)” value [4] was “positive values” and the “ΦF (fluorescence quantum yield)” value ([5]; in THF) was 0.13 ± 0.01. The “phototoxicity (in words)” value (MDA-MB-231 cells [2]) was “did not show significant phototoxicity” and the “internalization in cells (in words)” value (MDA-MB-231 cells [3]) was “internalized in a much higher percentage than the other POSSPs”.

For `NCCC[Si]12O[Si]3(CCCN)O[Si]4(CCCN)O[Si](CCCN)(O1)O[Si]1(CCCN)O[Si](CCCN)(O2)O[Si](CCCN)(O3)O[Si](CCCNC(=O)c2ccc(-c3c5nc(c(-c6ccccc6)c6ccc([nH]6)c(-c6ccccc6)c6nc(c(-c7ccccc7)c7ccc3[nH]7)C=C6)C=C5)cc2)(O4)O1` [POSSP 4], the “ΦΔ (1O2 quantum yield)” value [1] was 0.70 ± 0.01, the “log POW (in words)” value [4] was “Negative log POW values” and the “ΦF (fluorescence quantum yield)” value ([5]; in DMSO) was 0.15 ± 0.01. The “reduction in cell proliferation” value (MDA-MB-231 cells [2]) was 11 ± 2%.

With `C[N+](C)(C)CCC[Si]12O[Si]3(CCCNC(=O)c4ccc(-c5c6nc(c(-c7ccccc7)c7ccc([nH]7)c(-c7ccccc7)c7nc(c(-c8ccccc8)c8ccc5[nH]8)C=C7)C=C6)cc4)O[Si]4(CCC[N+](C)(C)C)O[Si](CCC[N+](C)(C)C)(O1)O[Si]1(CCC[N+](C)(C)C)O[Si](CCC[N+](C)(C)C)(O2)O[Si](CCC[N+](C)(C)C)(O3)O[Si](CCC[N+](C)(C)C)(O4)O1` [POSSP 5] the “ΦΔ (1O2 quantum yield)” value [1] was 0.66 ± 0.01, the “log POW (in words)” value [4] was “Negative log POW values” and the “cytotoxicity at higher concentrations (in words)” value (MDA-MB-231 cells [6]) was “structural properties of the molecule also play a role in its toxicity”. For the same compound, the “ΦF (fluorescence quantum yield)” value ([5]; in DMSO) was 0.10 ± 0.01 and the “phototoxicity (in words)” value (MDA-MB-231 cells [2]) was “did not show significant phototoxicity”.

In the case of `C1=Cc2nc1c(-c1ccccc1)c1nc(c(-c3ccccc3)c3ccc([nH]3)c(-c3ccccc3)c3ccc([nH]3)c2-c2ccccc2)C=C1` [TPP, 5,10,15,20-(tetraphenyl)porphyrin], the “fluorescence quantum yield of reference” value [7] is listed as 0.12 and the “ΦΔ (1O2 quantum yield) of reference” value [8] is listed as 0.62.
